Each compound was assayed against T1, MAT2A homodimer (Homo sapiens, UniProt P31153) (assay: MAT2A biochemical assay (liberated phosphate, PiColorLock Gold)). Details: Table 5a; MAT2A biochemical assay; read-out: Enzyme Inhibition.
T1 construct: inferred from the Ni sepharose purification and imidazole elution; made in house; host or cells: SF9 insect cells, recombinant baculovirus (Bac to Bac, pFASTBAC1)
In short: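 Readout is liberated phosphate (PiColorLock Gold), stoichiometric with SAM production, quantified against a potassium phosphate standard curve. Enzyme: recombinant MAT2A homodimer from Sf9, equilibrated 60 min at 25 °C with compound before 60 min reaction with substrate mix containing 500 μM ATP and 400 μM L-methionine.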

T1 sequence (P31153 whole entry): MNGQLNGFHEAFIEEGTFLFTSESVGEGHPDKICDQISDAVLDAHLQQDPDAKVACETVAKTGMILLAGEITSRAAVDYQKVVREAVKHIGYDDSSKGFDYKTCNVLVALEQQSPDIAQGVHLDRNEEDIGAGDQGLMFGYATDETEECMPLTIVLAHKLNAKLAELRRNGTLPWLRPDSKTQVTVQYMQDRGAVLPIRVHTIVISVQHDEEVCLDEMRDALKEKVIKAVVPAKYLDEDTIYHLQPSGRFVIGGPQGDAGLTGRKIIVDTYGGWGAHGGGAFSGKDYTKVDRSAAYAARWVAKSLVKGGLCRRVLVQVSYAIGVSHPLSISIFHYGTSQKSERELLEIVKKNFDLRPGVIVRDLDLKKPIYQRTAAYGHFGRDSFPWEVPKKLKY

IC50 [nM] | Structure (SMILES)
100 to 1000 | COc1ccc(-n2c(=O)c3cnc(NCC(F)(F)F)nc3n(-c3ccc(O)cc3)c2=O)cc1 [Example 262, 1-(4-hydroxyphenyl)-3-(4-methoxyphenyl)-7-((2,2,2-trifluoroethyl)amino)pyrimido[4,5-d]pyrimidine-2,4(1H,3H)-dione]
< 100 | Cn1cc2cc(N3Cc4cnc(NCC(F)(F)F)nc4N(c4ccc(Cl)cc4)C3=O)ccc2n1 [Example 263, 1-(4-chlorophenyl)-3-(2-methyl-2H-indazol-5-yl)-7-((2,2,2-trifluoroethyl)amino)-3,4-dihydropyrimido[4,5-d]pyrimidin-2(1H)-one]
1000 to 10000 | COc1ccc(N2Cc3cnc(NCC4CC4)nc3N(c3ccc(O)cc3)C2=O)cc1 [Example 265]
1000 to 10000 | COc1ccc(N2Cc3cnc(NCC4CC4)nc3N(c3ccncc3)C2=O)cc1 [Example 266]
100 to 1000 | COc1ccc(N2Cc3cnc(NCC4CC4)nc3N(c3ccc(OC)cc3)C2=O)cc1 [Example 267]
100 to 1000 | COc1ccc(N2Cc3cnc(NCC(F)(F)F)nc3N(c3ccc(C(N)=O)cc3)C2=O)cc1 [Example 276, 4-(3-(4-methoxyphenyl)-2-oxo-7-((2,2,2-trifluoroethyl)amino)-3,4-dihydropyrimido[4,5-d]pyrimidin-1(2H)-yl)benzamide]
1000 to 10000 | CNC(=O)c1ccc(N2C(=O)N(c3ccc(OC)cc3)Cc3cnc(NCC(F)(F)F)nc32)cc1 [Example 277, 4-(3-(4-methoxyphenyl)-2-oxo-7-((2,2,2-trifluoroethyl)amino)-3,4-dihydropyrimido[4,5-d]pyrimidin-1(2H)-yl)-N-methylbenzamide]
100 to 1000 | COc1ccc(N2Cc3cnc(NCC(F)(F)F)nc3N(c3ccc(C4(O)CC4)cc3)C2=O)cc1 [Example 278, 1-(4-(1-hydroxycyclopropyl)phenyl)-3-(4-methoxyphenyl)-7-((2,2,2-trifluoroethyl)amino)-3,4-dihydropyrimido[4,5-d]pyrimidin-2(1H)-one]
100 to 1000 | COc1ccc(N2Cc3cnc(NCC(F)(F)F)nc3N(c3ccc(-c4ccc[nH]c4=O)cc3)C2=O)cc1 [Example 279, 3-(4-methoxyphenyl)-1-(4-(2-oxo-1,2-dihydropyridin-3-yl)phenyl)-7-((2,2,2-trifluoroethyl)amino)-3,4-dihydropyrimido[4,5-d]pyrimidin-2(1H)-one]
100 to 1000 | COc1ccc(N2Cc3cnc(NCC(F)(F)F)nc3N(c3ccc(-c4cc[nH]c4)cc3)C2=O)cc1 [Example 280, 1-(4-(1H-pyrrol-3-yl)phenyl)-3-(4-methoxyphenyl)-7-((2,2,2-trifluoroethyl)amino)-3,4-dihydropyrimido[4,5-d]pyrimidin-2(1H)-one]
100 to 1000 | COc1ccc(N2Cc3cnc(NCC(F)(F)F)nc3N(c3ccc(C4CC4O)cc3)C2=O)cc1 (centres unmarked) [Example 281, 1-(4-(2-hydroxycyclopropyl)phenyl)-3-(4-methoxyphenyl)-7-((2,2,2-trifluoroethyl)amino)-3,4-dihydropyrimido[4,5-d]pyrimidin-2(1H)-one]
100 to 1000 | Cn1cc2cc(N3Cc4cc(Cl)c(OCC(F)F)cc4N(c4ccc(OC(F)F)cc4)C3=O)ccc2n1 [Example 284, 6-chloro-7-(2,2-difluoroethoxy)-1-(4-(difluoromethoxy)phenyl)-3-(2-methyl-2H-indazol-5-yl)-3,4-dihydroquinazolin-2(1H)-one]
100 to 1000 | [2H]C([2H])([2H])Oc1ccc(N2C(=O)N(c3ccc4nn(C)cc4c3)C(C)c3ccc(OCC(F)F)nc32)cc1 (centres unmarked) [Example 286, 7-(2,2-difluoroethoxy)-1-(4-(methoxy-d3)phenyl)-4-methyl-3-(2-methyl-2H-indazol-5-yl)-3,4-dihydropyrido[2,3-d]pyrimidin-2(1H)-one]
1000 to 10000 | CCOc1cc2c(nn1)CN(c1ccc3nn(C)cc3c1)C(=O)N2c1ccc(OC(F)F)cc1 [Example 292, 5-(4-(difluoromethoxy)phenyl)-3-ethoxy-7-(2-methyl-2H-indazol-5-yl)-7,8-dihydropyrimido[5,4-c]pyridazin-6(5H)-one]
100 to 1000 | Cn1cc2cc(N3Cc4nnc(NCC(F)(F)F)cc4N(c4ccc(OC(F)F)cc4)C3=O)ccc2n1 [Example 293]
100 to 1000 | CCOc1cc2c(cn1)CN(c1ccc3nn(C)cc3c1)C(=O)N2c1ccc(Cl)cc1 [Example 418, 1-(4-chlorophenyl)-7-ethoxy-3-(2-methyl-2H-indazol-5-yl)-3,4-dihydropyrido[4,3-d]pyrimidin-2(1H)-one]
1000 to 10000 | COC1CCC(N2C(=O)N(c3ccc4nn(C)cc4c3)Cc3ccc(OCC(F)F)nc32)CC1 (centres unmarked) [Example 427, 7-(2,2-difluoroethoxy)-1-(4-methoxycyclohexyl)-3-(2-methyl-2H-indazol-5-yl)-1H,2H,3H,4H-pyrido[2,3-d]pyrimidin-2-one]
< 100 | Cc1ccc(N2C(=O)N(c3ccc4nn(C)cc4c3)Cc3cnc(NCC(F)(F)F)nc32)cn1 [Example 433, 3-(2-methyl-2H-indazol-5-yl)-1-(6-methylpyridin-3-yl)-7-((2,2,2-trifluoroethyl)amino)-3,4-dihydropyrimido[4,5-d]pyrimidin-2(1H)-one]
< 100 | [2H]C([2H])([2H])Oc1ccc(N2C(=O)N(c3ccc4nc(C)n(C)c4c3)Cc3c(C)nc(NCC(F)(F)F)nc32)cc1 [Example 435, 3-(1,2-dimethyl-1H-benzo[d]imidazol-6-yl)-1-(4-(methoxy-d3)phenyl)-5-methyl-7-((2,2,2-trifluoroethyl)amino)-3,4-dihydropyrimido[4,5-d]pyrimidin-2(1H)-one]

Same assay, conditions: Table 5a; given as a bound, not a class symbol; read-out: Enzyme Inhibition

IC50 [nM] | Structure (SMILES)
> 10000 | CCOc1ccc(N2C(=O)N(c3ccc4nn(C)cc4c3)Cc3nnc(OCC)cc32)cc1 [Example 438]
